From PMC6934184, “Selective DNA-PKcs inhibition extends the therapeutic index of localized radiotherapy and chemotherapy” (The Journal of Clinical Investigation, 2019) come the findings set out here.

SMILES strings stand for the structures.

The target in this experiment is T1, CDK5/p25 (Homo sapiens, UniProt Q00535).
T1 construct: purchased Thermo Fisher Scientific (Life Technologies) SelectScreen
Kind of experiment: SelectScreen Z'LYTE. It counts as biochemical. Summed up: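 NU5455 was profiled across the SelectScreen Broad panel of kinase activity and binding assays. Z'LYTE reactions such as CSF1R ran at apparent Km ATP, while the Adapta CAMK1 assay used ATP listed as 10. Values are given as percent.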

T1 sequence (Q00535 whole entry): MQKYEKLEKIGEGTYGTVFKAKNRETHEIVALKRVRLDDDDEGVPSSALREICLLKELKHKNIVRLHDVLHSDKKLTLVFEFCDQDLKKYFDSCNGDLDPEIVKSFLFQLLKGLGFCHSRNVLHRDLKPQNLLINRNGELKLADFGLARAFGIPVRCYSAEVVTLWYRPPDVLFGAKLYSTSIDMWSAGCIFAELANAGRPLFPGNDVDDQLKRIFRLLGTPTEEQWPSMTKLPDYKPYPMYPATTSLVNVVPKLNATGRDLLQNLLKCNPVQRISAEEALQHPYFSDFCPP
T1 sequence (Q15078 99-307 partner limits assumed): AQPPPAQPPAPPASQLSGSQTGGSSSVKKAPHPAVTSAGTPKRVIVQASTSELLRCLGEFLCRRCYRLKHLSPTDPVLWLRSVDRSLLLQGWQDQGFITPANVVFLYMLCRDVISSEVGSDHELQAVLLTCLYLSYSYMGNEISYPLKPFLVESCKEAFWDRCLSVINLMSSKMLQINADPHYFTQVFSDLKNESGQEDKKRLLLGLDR

By inhibition is commonly meant the relative decrease from the control value, in per cent. `CN(C(=O)CN1CCOCC1)c1ccc2sc3c(-c4cccc5c(=O)cc(N6CC7CCC(C6)O7)oc45)cccc3c2c1` [NU5455]: the inhibition at 1 µM was -1.1%.
